Assay results published in PubChem BioAssay (NCI).
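Test compounds were applied to cells in 96-well plates for 48 hours at 5 doses. Here, GI50 denotes the concentration required for 50% inhibition of growth. At the TGI there is no net growth.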

Legend:
Assay in all cases: NCI-60 cell line screen, 48 h
[1] = system: MDA-MB-231 breast
[2] = system: HT29 colon
[3] = system: OVCAR-3 ovarian
[4] = system: TK-10 renal
[5] = system: M14 melanoma
[6] = system: SW-620 colon
[7] = system: UACC-257 melanoma
[8] = system: EKVX NSCLC
[9] = system: NCI-H226 lung
[10] = system: HCT-116 colon
[11] = system: A498 renal
[12] = system: SNB-19 CNS
[13] = system: IGROV1 ovarian
[14] = system: RXF 393 renal
[15] = system: CCRF-CEM leukemia
[16] = system: SNB-75 CNS
[17] = system: NCI-H522 lung
[18] = system: SF-295 CNS
[19] = system: CAKI-1 renal
[20] = system: 786-0 renal
[21] = system: OVCAR-4 ovarian
[22] = system: KM12 colon
[23] = system: RPMI-8226 leukemia
[24] = system: BT-549 breast
[25] = system: MOLT-4 leukemia
[26] = system: MALME-3M melanoma
[27] = system: HL-60(TB) leukemia
[28] = system: UO-31 renal
[29] = system: K-562 leukemia
[30] = system: MDA-MB-435
[31] = system: NCI-H23 lung
[32] = system: A549 NSCLC
[33] = system: OVCAR-8 ovarian
[34] = system: HCC-2998 colon
[35] = system: T-47D breast
[36] = system: U251 CNS
[37] = system: SN12C renal
[38] = system: SF-268 CNS
[39] = system: OVCAR-5 ovarian
[40] = system: SK-MEL-5 melanoma
[41] = system: HCT-15 colon
[42] = system: LOX IMVI melanoma
[43] = system: ACHN renal
[44] = system: SK-OV-3 ovarian
[45] = system: MCF7 breast
[46] = system: HS 578T breast
[47] = system: SR leukemia
[48] = system: COLO 205 colon
[49] = system: NCI/ADR-RES ovarian
[50] = system: SK-MEL-2 melanoma
[51] = system: HOP-62 NSCLC
[52] = system: SF-539 CNS
[53] = system: NCI-H460 lung
[54] = system: HOP-92 NSCLC
[55] = system: DU-145 prostate
[56] = system: PC-3 prostate
[57] = system: UACC-62 melanoma

COc1ccc(NC([Se])=NC23CC4CC(CC(C4)C2)C3)cc1
GI50 [1]: 1.79 µM | TGI [1]: 3.91 µM | GI50 [2]: 2.64 µM | TGI [2]: 15 µM | GI50 [3]: 1.39 µM | TGI [3]: 3.21 µM | GI50 [4]: 2.1 µM | TGI [4]: 5.52 µM | GI50 [5]: 1.37 µM | TGI [5]: 3.29 µM | GI50 [6]: 1.51 µM | TGI [6]: 6.45 µM | GI50 [7]: 2.03 µM | TGI [7]: 5.44 µM | GI50 [8]: 1.97 µM | TGI [8]: 4.74 µM | GI50 [9]: 1.25 µM | TGI [9]: 5.26 µM | GI50 [10]: 1.28 µM | TGI [10]: 2.78 µM | GI50 [11]: 1.32 µM | TGI [11]: 4.75 µM | GI50 [12]: 1.86 µM | TGI [12]: 50.6 µM | GI50 [13]: 1.64 µM | TGI [13]: 7.7 µM | GI50 [14]: 1.8 µM | TGI [14]: 4.72 µM | GI50 [15]: 0.705 µM | TGI [15]: 4.97 µM | GI50 [16]: 1.54 µM | TGI [16]: 4.5 µM | GI50 [17]: 1.23 µM | TGI [17]: 4.35 µM | GI50 [18]: 1.52 µM | TGI [18]: 4.15 µM | GI50 [19]: 2.57 µM | TGI [19]: 10.2 µM | GI50 [20]: 1.78 µM | TGI [20]: 4.22 µM | GI50 [21]: 0.42 µM | TGI [21]: 3.46 µM | GI50 [22]: 1.85 µM | TGI [22]: 5.54 µM | GI50 [23]: 0.845 µM | TGI [23]: 3.8 µM | GI50 [24]: 0.874 µM | TGI [24]: 2.32 µM | GI50 [25]: 0.611 µM | TGI [25]: 5.12 µM | GI50 [26]: 0.653 µM | TGI [26]: 3.74 µM | GI50 [27]: 2.15 µM | TGI [27]: 5.91 µM | GI50 [28]: 1.74 µM | TGI [28]: 4.11 µM | GI50 [29]: 0.542 µM | TGI [29]: 18.8 µM | GI50 [30]: 2.84 µM | TGI [30]: 19.5 µM | GI50 [31]: 0.456 µM | TGI [31]: 3 µM | GI50 [32]: 2.38 µM | TGI [32]: 7.78 µM | GI50 [33]: 0.645 µM | TGI [33]: 3.71 µM | GI50 [34]: 2.86 µM | TGI [34]: 8.5 µM | GI50 [35]: 1.88 µM | TGI [35]: 4.89 µM | GI50 [36]: 1.27 µM | TGI [36]: 4.91 µM | GI50 [37]: 1.61 µM | TGI [37]: 8.81 µM | GI50 [38]: 3.55 µM | TGI [38]: > 100 µM | GI50 [39]: 1.7 µM | TGI [39]: 4.68 µM | GI50 [40]: 0.558 µM | TGI [40]: 1.79 µM | GI50 [41]: 1.57 µM | TGI [41]: 11.1 µM | GI50 [42]: 1.91 µM | TGI [42]: 5.09 µM | GI50 [43]: 1.99 µM | TGI [43]: 4.71 µM | GI50 [44]: 2.45 µM | TGI [44]: 7.43 µM | GI50 [45]: 1.57 µM | TGI [45]: 9.4 µM | GI50 [46]: 2.08 µM | TGI [46]: 7.89 µM | GI50 [47]: 1.67 µM | TGI [47]: > 100 µM | GI50 [48]: 1.66 µM | TGI [48]: 3.95 µM | GI50 [49]: 0.711 µM | TGI [49]: 8.88 µM | GI50 [50]: 2.27 µM | TGI [50]: 7.33 µM | GI50 [51]: 2.24 µM | TGI [51]: 9.49 µM | GI50 [52]: 1.89 µM | TGI [52]: 4.19 µM | GI50 [53]: 1.98 µM | TGI [53]: 10.7 µM | GI50 [54]: 2.34 µM | TGI [54]: 14.2 µM | GI50 [55]: 3.13 µM | TGI [55]: 11.2 µM | GI50 [56]: 0.696 µM | TGI [56]: 32.2 µM | GI50 [57]: 1.43 µM | TGI [57]: 4.96 µM
